Key:
[1] = molecular target: T1, Aldo-keto reductase family 1 member C21 (Mus musculus, UniProt Q91WR5); assay: Inhibition of mouse recombinant AKR1C21
T1 sequence (Q91WR5 whole entry): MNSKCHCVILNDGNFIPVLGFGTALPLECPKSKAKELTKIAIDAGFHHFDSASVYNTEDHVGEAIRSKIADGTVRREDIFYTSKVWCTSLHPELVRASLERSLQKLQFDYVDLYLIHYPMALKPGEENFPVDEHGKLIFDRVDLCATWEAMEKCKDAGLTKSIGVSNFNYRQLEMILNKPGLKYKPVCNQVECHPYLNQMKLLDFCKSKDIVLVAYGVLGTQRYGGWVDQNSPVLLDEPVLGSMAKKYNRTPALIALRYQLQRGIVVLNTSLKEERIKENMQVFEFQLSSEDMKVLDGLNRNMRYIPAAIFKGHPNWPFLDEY

[2] = molecular target: Aldo-keto reductase family 1 member B1 (Homo sapiens, UniProt P15121); assay: Inhibition of human recombinant aldose reductase
[3] = molecular target: T2, Aldo-keto reductase family 1 member C21 (Mus musculus) (UniProt Q91WR5); assay: Inhibition of mouse recombinant AKR1C21 at 12 uM
T2 sequence (whole entry): T1 sequence (Q91WR5 whole entry)

SMILES	IC50 [1]	Ki [1]	IC50 [2]	inhibition [3]
COc1ccc2c(C(=S)N(C)CC(=O)O)cccc2c1C(F)(F)F [TOLRESTAT]	48 µM	22 µM	–	–
O=c1c(O)c(-c2cc(O)c(O)c(O)c2)oc2cc(O)cc(O)c12 [MYRICETIN]	12.3 µM	–	29 µM	–
O=c1cc(-c2ccccc2)oc2cc(O)cc(O)c12 [CHRYSIN]	–	–	8.5 µM	36%
O=C1CC2(C(=O)N1)C(=O)N(Cc1ccc(Br)cc1F)C(=O)c1ccc(F)cc12 (configuration not stated)	27.5 µM	10.4 µM	–	–
C[C@@H]1O[C@@H](Oc2c(-c3ccc(O)c(O)c3)oc3cc(O)cc(O)c3c2=O)[C@H](O)[C@H](O)[C@H]1O [QUERCITRIN]	33.3 µM	–	–	–
O=c1c(O)c(-c2ccc(O)c(O)c2)oc2cc(O)cc(O)c12 [QUERCETIN]	6.9 µM	11 µM	–	–
O=C(O)Cc1nn(Cc2nc3cc(C(F)(F)F)ccc3s2)c(=O)c2ccccc12 [ZOPOLRESTAT]	158 µM	–	–	–

Source: ChEMBL document CHEMBL1143916, “Inhibition of 3(17)alpha-hydroxysteroid dehydrogenase (AKR1C21) by aldose reductase inhibitors” (Bioorg Med Chem, 2008)
